Source: US9611224B2 (Hoffmann-La Roche Inc., priority 2012, dated 2017)
Where a name gives a salt, the structure may show the parent alone.

What follows are compounds tested against BIR3 domain of XIAP (Homo sapiens (Human), UniProt P98170) (assay: TR-FRET assay for BIR3 (inhibition of binding to Peptide A)). Conditions: 6x His-tagged BIR3 domain (aa 241-356 of XIAP), 20 nM Peptide A, 10 concentrations.
Description: TR-FRET Assay for BIR2 and BIR3
Percentage of inhibition at each concentration was determined to generate an IC50 value for each test compound.

Sequence of BIR3 domain of XIAP (P98170 other isoform, or with tags, fused parts or gaps): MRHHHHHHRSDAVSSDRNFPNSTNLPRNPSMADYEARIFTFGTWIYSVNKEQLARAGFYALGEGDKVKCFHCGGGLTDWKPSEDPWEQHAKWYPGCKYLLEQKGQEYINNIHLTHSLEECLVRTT

`CN[C@@H](C)C(=O)N[C@H]1CCc2ccccc2N(Cc2cc(F)ccc2OC)C1=O` [Example 1a, (S)—N—[(S)-1-(5-Fluoro-2-methoxy-benzyl)-2-oxo-2,3,4,5-tetrahydro-1H-benzo[b]azepin-3-yl]-2-methylamino-propionamide hydrochloride] and `CN[C@@H](C)C(=O)N[C@H]1CCc2ccccc2N(Cc2cc(Br)ccc2OC)C1=O` [Example 1e, (S)—N—[(S)-1-(5-Bromo-2-methoxy-benzyl)-2-oxo-2,3,4,5-tetrahydro-1H-benzo[b]azepin-3-yl]-2-methylamino-propionamide hydrochloride] cannot be ordered by IC50: > 54.8 µM for the first, > 54.8 µM for the second.

`CN[C@@H](C)C(=O)N[C@H]1CCc2ccccc2N(Cc2nn(C)c3ccccc23)C1=O` [Example 1b, (S)-2-Methylamino-N—[(S)-1-(1-methyl-1H-indazol-3-ylmethyl)-2-oxo-2,3,4,5-tetrahydro-1H-benzo[b]azepin-3-yl]-propionamide hydrochloride] and `CN[C@@H](C)C(=O)N[C@H]1CCc2ccccc2N(Cc2noc3ccccc23)C1=O` [Example 1k, (S)—N—((S)-1-Benzo[d]isoxazol-3-ylmethyl-2-oxo-2,3,4,5-tetrahydro-1H-benzo[b]azepin-3-yl)-2-methylamino-propionamide hydrochloride] cannot be ordered by IC50: > 54.8 µM for the first, > 54.8 µM for the second.

`CN[C@@H](C)C(=O)N[C@H]1CCc2ccccc2N(Cc2cc(C(F)(F)F)ccc2OC)C1=O` [Example 1c, (S)—N—[(S)-1-(2-Methoxy-5-trifluoromethyl-benzyl)-2-oxo-2,3,4,5-tetrahydro-1H-benzo[b]azepin-3-yl]-2-methylamino-propionamide hydrochloride] and `CN[C@@H](C)C(=O)N[C@H]1CCc2ccccc2N(Cc2cc(Cl)ccc2OC)C1=O` [Example 1f, (S)—N—[(S)-1-(5-Chloro-2-methoxy-benzyl)-2-oxo-2,3,4,5-tetrahydro-1H-benzo[b]azepin-3-yl]-2-methylamino-propionamide hydrochloride] cannot be ordered by IC50: > 54.8 µM for the first, > 54.8 µM for the second.

`CN[C@@H](C)C(=O)N[C@H]1CCc2ccccc2N(Cc2cc(F)c(F)cc2OC)C1=O` [Example 1d, (S)—N—[(S)-1-(4,5-Difluoro-2-methoxy-benzyl)-2-oxo-2,3,4,5-tetrahydro-1H-benzo[b]azepin-3-yl]-2-methylamino-propionamide hydrochloride] and `CN[C@@H](C)C(=O)N[C@H]1CCc2ccccc2N(Cc2ccc(Cl)cc2OC)C1=O` [Example 1i, (S)—N—[(S)-1-(4-Chloro-2-methoxy-benzyl)-2-oxo-2,3,4,5-tetrahydro-1H-benzo[b]azepin-3-yl]-2-methylamino-propionamide hydrochloride] cannot be ordered by IC50: > 54.8 µM for the first, > 54.8 µM for the second.

`CN[C@@H](C)C(=O)N[C@H]1CCc2ccccc2N(Cc2cc(F)ccc2F)C1=O` [Example 1g, (S)—N—[(S)-1-(2,5-Difluoro-benzyl)-2-oxo-2,3,4,5-tetrahydro-1H-benzo[b]azepin-3-yl]-2-methylamino-propionamide hydrochloride] and `CN[C@@H](C)C(=O)N[C@H]1CCc2ccccc2N(Cc2cc(Cl)ccc2F)C1=O` [Example 1m, (S)—N—[(S)-1-(5-Chloro-2-fluoro-benzyl)-2-oxo-2,3,4,5-tetrahydro-1H-benzo[b]azepin-3-yl]-2-methylamino-propionamide hydrochloride] cannot be ordered by IC50: > 54.8 µM for the first, > 51.5 µM for the second.

`CN[C@@H](C)C(=O)N[C@H]1CCc2ccccc2N(Cc2c(F)c(F)c(F)c(F)c2F)C1=O` [Example 1h, (S)-2-Methylamino-N—((S)-2-oxo-1-pentafluorophenylmethyl-2,3,4,5-tetrahydro-1H-benzo[b]azepin-3-yl)-propionamide hydrochloride] and `CN[C@@H](C)C(=O)N[C@H]1CCc2ccccc2N(Cc2cccs2)C1=O` [Example 2a, (S)-2-(Methylamino)-N—((S)-2-oxo-1-(thiophen-2-ylmethyl)-2,3,4,5-tetrahydro-1H-benzo[b]azepin-3-yl)propanamide hydrochloride] cannot be ordered by IC50: > 54.8 µM for the first, > 51.5 µM for the second.

First: CN[C@@H](C)C(=O)N[C@H]1CCc2ccccc2N(Cc2ccc(Br)cc2OC)C1=O [Example 1j, (S)—N—[(S)-1-(4-Bromo-2-methoxy-benzyl)-2-oxo-2,3,4,5-tetrahydro-1H-benzo[b]azepin-3-yl]-2-methylamino-propionamide hydrochloride]
Second: CN[C@@H](C)C(=O)N[C@H]1CCc2ccccc2N(Cc2cc(I)ccc2OC)C1=O [Example 1n, (S)—N—[(S)-1-(5-Iodo-2-methoxy-benzyl)-2-oxo-2,3,4,5-tetrahydro-1H-benzo[b]azepin-3-yl]-2-methylamino-propionamide hydrochloride]
The IC50 of the first is higher: > 54.8 µM for the first, 43 µM for the second.

`CN[C@@H](C)C(=O)N[C@H]1CCc2ccccc2N(Cc2cc(Cl)ccc2Cl)C1=O` [Example 1l, (S)—N—[(S)-1-(2,5-Dichloro-benzyl)-2-oxo-2,3,4,5-tetrahydro-1H-benzo[b]azepin-3-yl]-2-methylamino-propionamide hydrochloride] and `CN[C@@H](C)C(=O)N[C@H]1CCc2ccccc2N(Cc2ccncc2)C1=O` [Example 2h, (S)-2-Methylamino-N—((S)-2-oxo-1-pyridin-4-ylmethyl-2,3,4,5-tetrahydro-1H-benzo[b]azepin-3-yl)-propionamide hydrochloride] cannot be ordered by IC50: > 54.8 µM for the first, > 54.8 µM for the second.

`CN[C@@H](C)C(=O)N[C@H]1CCc2ccccc2N(Cc2cc(C(C)C)ccc2OC)C1=O` [Example 1o, (S)—N—[(S)-1-(5-Isopropyl-2-methoxy-benzyl)-2-oxo-2,3,4,5-tetrahydro-1H-benzo[b]azepin-3-yl]-2-methylamino-propionamide hydrochloride] and `CN[C@@H](C)C(=O)N[C@H]1CCc2ccccc2N(Cc2ccsc2)C1=O` [Example 2b, (S)-2-Methylamino-N—((S)-2-oxo-1-thiophen-3-ylmethyl-2,3,4,5-tetrahydro-1H-benzo[b]azepin-3-yl)-propionamide hydrochloride] cannot be ordered by IC50: > 51.5 µM for the first, > 51.5 µM for the second.

`CN[C@@H](C)C(=O)N[C@H]1CCc2ccccc2N(Cc2cncs2)C1=O` [Example 2c, (S)-2-Methylamino-N—((S)-2-oxo-1-thiazol-5-ylmethyl-2,3,4,5-tetrahydro-1H-benzo[b]azepin-3-yl)-propionamide hydrochloride] and `CN[C@@H](C)C(=O)N[C@H]1CCc2ccccc2N(Cc2cnco2)C1=O` [Example 2e, (S)-2-Methylamino-N—((S)-1-oxazol-5-ylmethyl-2-oxo-2,3,4,5-tetrahydro-1H-benzo[b]azepin-3-yl)-propionamide hydrochloride] cannot be ordered by IC50: > 51.5 µM for the first, > 54.8 µM for the second.

`CN[C@@H](C)C(=O)N[C@H]1CCc2ccccc2N(Cc2nccs2)C1=O` [Example 2d, (S)-2-Methylamino-N—((S)-2-oxo-1-thiazol-2-ylmethyl-2,3,4,5-tetrahydro-1H-benzo[b]azepin-3-yl)-propionamide hydrochloride] and `CN[C@@H](C)C(=O)N[C@H]1CCc2ccccc2N(Cc2ccccn2)C1=O` [Example 2g, (S)-2-Methylamino-N—((S)-2-oxo-1-pyridin-2-ylmethyl-2,3,4,5-tetrahydro-1H-benzo[b]azepin-3-yl)-propionamide hydrochloride] cannot be ordered by IC50: > 54.8 µM for the first, > 54.8 µM for the second.

For `CN[C@@H](C)C(=O)N[C@H]1CCc2ccccc2N(Cc2cccnc2)C1=O` [Example 2f, (S)-2-Methylamino-N—((S)-2-oxo-1-pyridin-3-ylmethyl-2,3,4,5-tetrahydro-1H-benzo[b]azepin-3-yl)-propionamide hydrochloride], the IC50 was > 51.5 µM.
